One compound from PMC3475447 (Bioscience Reports, 2012) can be followed below.

For orientation: Kd means a measure of binding affinity in units of concentration. The low end stands for tighter binding, the high end for weaker binding.

The target of the test is T1, ATPBD of A. fulgidus CopB (Strep-tagged) (Archaeoglobus fulgidus, UniProt O30085).
T1 sequence (O30085 372-636): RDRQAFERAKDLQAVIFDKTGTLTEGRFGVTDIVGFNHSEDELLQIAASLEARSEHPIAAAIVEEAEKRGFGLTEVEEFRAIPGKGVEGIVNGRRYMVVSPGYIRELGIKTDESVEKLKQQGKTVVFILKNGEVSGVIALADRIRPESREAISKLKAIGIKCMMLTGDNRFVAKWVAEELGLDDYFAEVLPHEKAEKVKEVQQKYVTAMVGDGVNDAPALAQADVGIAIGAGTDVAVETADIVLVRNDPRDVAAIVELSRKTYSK
Put plainly: biochemical.

Each structure is given as a SMILES string.

Consider `Nc1ncnc2c1ncn2[C@@H]1O[C@H](COP(=O)(O)OP(=O)(O)OP(=O)(O)O)[C@@H](O)[C@H]1O` [ATP], for which the affinity, expressed as Kd, was 34 ± 2 µM.
